Laboratory results published in patent US7687484B2, “Transporter enhanced corticosteroid activity” (priority 2006, dated 2010).
Entries after “also recorded” stand apart in the source; their conditions may differ. Where two headings read alike, the source gives them in different places.

Experiments:
[1] = logP reported in literature; cited from earlier work
glucocorticoid receptor [2] = biological target: T1, glucocorticoid receptor (Homo sapiens, UniProt P04150); settings: relative to dexamethasone = 100; average of all values if multiple available; cited from earlier work
T1 sequence (P04150 1-777): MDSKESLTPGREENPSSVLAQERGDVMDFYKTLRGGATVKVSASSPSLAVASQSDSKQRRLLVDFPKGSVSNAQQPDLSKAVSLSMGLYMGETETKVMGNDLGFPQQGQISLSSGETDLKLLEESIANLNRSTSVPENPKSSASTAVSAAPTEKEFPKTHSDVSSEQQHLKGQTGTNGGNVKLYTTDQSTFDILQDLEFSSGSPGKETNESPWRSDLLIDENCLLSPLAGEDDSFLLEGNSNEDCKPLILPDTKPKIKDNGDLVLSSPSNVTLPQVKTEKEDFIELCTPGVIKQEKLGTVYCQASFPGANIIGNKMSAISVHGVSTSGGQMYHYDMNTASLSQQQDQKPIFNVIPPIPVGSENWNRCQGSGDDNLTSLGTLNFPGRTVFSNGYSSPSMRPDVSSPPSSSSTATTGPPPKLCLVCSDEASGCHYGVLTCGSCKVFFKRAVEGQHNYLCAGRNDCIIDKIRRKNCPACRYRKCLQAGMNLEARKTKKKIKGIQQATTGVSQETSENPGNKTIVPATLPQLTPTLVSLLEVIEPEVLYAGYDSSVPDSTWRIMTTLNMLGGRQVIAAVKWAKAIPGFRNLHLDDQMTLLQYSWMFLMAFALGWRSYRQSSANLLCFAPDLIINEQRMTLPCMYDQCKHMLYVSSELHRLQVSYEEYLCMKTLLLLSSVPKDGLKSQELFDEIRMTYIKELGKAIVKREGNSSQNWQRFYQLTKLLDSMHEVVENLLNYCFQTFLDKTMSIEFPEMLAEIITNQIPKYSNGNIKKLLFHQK

[3] = biological target: T2, Corticosteroid Binding Globulin (CBG), transcortin (Homo sapiens, UniProt P08185); settings: cited from earlier work; for Class: CBG binding activity class
T2 sequence (P08185 23-405): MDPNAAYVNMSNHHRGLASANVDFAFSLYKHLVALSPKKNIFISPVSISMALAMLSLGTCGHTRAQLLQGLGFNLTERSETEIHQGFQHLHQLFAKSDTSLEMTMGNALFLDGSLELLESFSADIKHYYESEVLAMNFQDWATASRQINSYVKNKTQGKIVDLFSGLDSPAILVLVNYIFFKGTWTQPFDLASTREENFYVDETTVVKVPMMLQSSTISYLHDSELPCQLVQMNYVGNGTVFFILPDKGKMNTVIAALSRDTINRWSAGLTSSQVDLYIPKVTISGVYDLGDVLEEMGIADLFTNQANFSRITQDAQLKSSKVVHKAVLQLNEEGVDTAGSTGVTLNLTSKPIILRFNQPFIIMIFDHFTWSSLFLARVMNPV

glucocorticoid receptor [4] = biological target: T1, glucocorticoid receptor; test: Relative binding affinity for the glucocorticoid receptor (GCR/GR); settings: GRs were calculated from RBAs; read-out: GR Est. IC50
transcortin (CBG) = biological target: T3, transcortin (CBG) (Homo sapiens, UniProt P08185); test: Binding of corticosteroids to transcortin: 3H-cortisol competition in charcoal-treated diluted plasma
T3 construct: from tissue; host or cells: plasma from venous blood of healthy volunteers, charcoal-treated, diluted 100-fold
T3 sequence (P08185 23-405): T2 sequence (P08185 23-405)
Description: Experimental procedure: Venous blood was collected from healthy volunteers into heparin-containing tubes (5 Us/100 ml serum) and cells were separated from plasma by centrifugation (1500 g for 15 min). […] Charcoal-treated plasma was diluted 100-fold with binding buffer (10 mM Tris-HCl; 2 mM DTT (dithiotreitol); 1.5 mM EDTA; 0.02 M Na2MoO4; 10% Glycerol; pH 7.4) and was stored aliquoted at −80° C. […] The assay ingredients were mixed and the tubes were incubated for 1 hour on ice. At the end of the incubation, 0.2 ml of charcoal suspension (0.5% Norit A and 0.05% BSA) was added to each tube. The tubes were briefly agitated and incubated for an additional 10 min at 0° C. They were then centrifuged for 10 min at 15 000 g, and the same aliquots from the clear supernatants were quantitatively decanted into counting vials and combined with 3 ml of toluene-based scintillation fluid. […] Specific binding and IC50-values were calculated.

[5] = system: forearms of human volunteers; test: Human vasoconstriction (blanching) testing; assay type: in vivo; parameters: key to Vasoconstriction activity (total score of 4 tests): sum of 4 tests, each 0 = normal skin to 4 = very intense pallor
Description: Solutions of LE, HC and PRN (0.1 or 1 mM) alone, or mixtures of LE and HC (0.1+0.1 mM, or 1+1 mM), or LE and PRN (0.1+0.1 mM, or 1+1 mM) were prepared with a vehicle containing absolute ethanol and propylene glycol (9:1). […] After evaporation of ethanol (20 min), the films were applied to the forearms of human volunteers for 4 hours. Subsequently, the vasoconstriction reaction was read and judged by the appearance of pallor at various time intervals after the removal of the discs and films. The grading scale was as follows: 0, normal skin; 1, slight pallor; 2, pallor with at least two corners outlined; 3, even pallor with a clear outlined of the application sites; 4, very intense pallor. Due to the relatively high variations in response between the volunteers, a total score of 4 tests at each time point was taken for the activity evaluation.

[6] = 3 nM 3H-cortisol, 1 hour on ice, plasma diluted 100-fold, read-out: IC50-values (nM) average ± SEM (n)
[7] = estimated, unpublished results Bodor, Kurucz 2006, read-out: CBG Est. IC50

Row | IC50 (transcortin (CBG); [6]) [nM] | IC50 (transcortin (CBG); [7]) [nM] | SMILES | logP [1] | rBA (relative receptor binding affinity) (glucocorticoid receptor [2]) | further results
1 |  |  | C[C@H]1C[C@H]2[C@@H]3CCC4=CC(=O)C=C[C@]4(C)[C@@]3(F)[C@@H](O)C[C@]2(C)[C@@]1(O)C(=O)CO [Betamethasone] | 1.94 |  | 
2 |  |  | CCCC1O[C@@H]2C[C@H]3[C@@H]4CCC5=CC(=O)C=C[C@]5(C)[C@H]4[C@@H](O)C[C@]3(C)[C@]2(C(=O)CO)O1 (stereo partly shown) [Budesonide, 22R, Budesonide] | 3.24 |  | 
3 |  |  | CCC(=O)O[C@]1(C(=O)CCl)[C@@H](C)C[C@H]2[C@@H]3CCC4=CC(=O)C=C[C@]4(C)[C@@]3(F)[C@@H](O)C[C@@]21C [Clobetasol propionate] | 3.83 | 6300 | 
4 |  |  | C[C@]12C[C@H](O)[C@H]3[C@@H](CCC4=CC(=O)CC[C@@]43C)[C@@H]1CC[C@@H]2C(=O)CO [Corticosterone] | 1.94 | 35 | Class [3]: 1; Log 1/K ([3]; CBG binding affinity, literature data): −7.881
5 | 117 ± 49 | 120 | C[C@]12CCC(=O)C=C1CCC1C2[C@@H](O)C[C@@]2(C)C1CC[C@]2(O)C(=O)O (stereo partly drawn) [Cortienic acid (CA) GYKI-24805, 11β,17α-dihydroxyandrost-4-en-3-one-17β-carboxylic acid] |  |  | IC50 (glucocorticoid receptor [4]): > 1000 nM
6 | 4500 ± 973 |  | CCOC(=O)[C@@]1(OC(=O)C(Cl)Cl)CC[C@H]2[C@@H]3CCC4=CC(=O)C=C[C@]4(C)[C@H]3[C@@H](O)C[C@@]21C [Etiprednol dicloacetate (BNP-166), Etiprednol dicloacetate] |  | 200 | 
7 |  |  | CC1(C)O[C@@H]2C[C@H]3[C@@H]4C[C@H](F)C5=CC(=O)C=C[C@]5(C)[C@H]4[C@@H](O)C[C@]3(C)[C@]2(C(=O)CO)O1 [Flunisolide] | 2.28 | 165 | 
8 |  | > 10000 | CCC(=O)O[C@]1(C(=O)SCF)[C@H](C)C[C@H]2[C@@H]3C[C@H](F)C4=CC(=O)C=C[C@]4(C)[C@@]3(F)[C@@H](O)C[C@@]21C [Fluticasone propionate] | 4.20 |  | 
9 |  |  | CC(=O)O[C@]1(C(=O)CO)CC[C@H]2[C@@H]3CCC4=CC(=O)CC[C@]4(C)[C@H]3[C@@H](O)C[C@@]21C [Hydrocortisone 17-acetate] |  | 41 | 
10 |  |  | CCCC(=O)O[C@]1(C(=O)CO)CC[C@H]2[C@@H]3CCC4=CC(=O)CC[C@]4(C)[C@H]3[C@@H](O)C[C@@]21C [Hydrocortisone 17-butyrate] |  | 95 | 
11 |  |  | CCC(=O)O[C@]1(C(=O)CO)CC[C@H]2[C@@H]3CCC4=CC(=O)CC[C@]4(C)[C@H]3[C@@H](O)C[C@@]21C [Hydrocortisone 17-propionate] | 2.70 | 79 | 
12 |  |  | C[C@@H]1C[C@H]2[C@@H]3CCC4=CC(=O)C=C[C@]4(C)[C@@]3(Cl)[C@@H](O)C[C@]2(C)[C@@]1(O)C(=O)CCl [Mometasone] |  | 88 | 
13 | 52 ± 10 | 50 | C[C@]12C=CC(=O)C=C1CCC1C2[C@@H](O)C[C@@]2(C)C1CC[C@]2(O)C(=O)O (stereo partly shown) [Δ1-CA GYKI-24762, Δ^1-cortienic acid] |  |  | IC50 (glucocorticoid receptor [4]): > 1000 nM
14 | 31 ± 11 | 30 | COC(=O)[C@@]1(O)CCC2C3CCC4=CC(=O)C=C[C@]4(C)C3[C@@H](O)C[C@@]21C (stereo partly shown) [Δ1-CA-Me GYKI-24776, Δ^1-CA, methyl ester] |  |  | IC50 (glucocorticoid receptor [4]): > 1000 nM

Row | SMILES | IC50 (transcortin (CBG); [6]) [nM] | IC50 (transcortin (CBG); [7]) [nM] | logP [1] | rBA (relative receptor binding affinity) (glucocorticoid receptor [2]) | further results
15 | C[C@]12CCC(=O)C=C1CCC1C2[C@@H](O)C[C@@]2(C)C1CC[C@]2(O)C(=O)CO (stereo partly shown) [Hydrocortisone (cortisol), hydrocortisone] | 69 ± 8 | 70 | 1.61 |  | Vasoconstriction activity (total score of 4 tests) ([5]; 0.1 mM, 2 hr after removal, 4 h application): 0; Vasoconstriction activity (total score of 4 tests) ([5]; 0.1 mM, 4 hr after removal): 0; Vasoconstriction activity (total score of 4 tests) ([5]; 0.1 mM, 6 hr after removal): 0; Vasoconstriction activity (total score of 4 tests) ([5]; 0.1 mM, 8 hr after removal): 0; Vasoconstriction activity (total score of 4 tests) ([5]; 0.1 mM, 10 hr after removal): 0; Vasoconstriction activity (total score of 4 tests) ([5]; 0.1 mM, 16 hr after removal): 0; Vasoconstriction activity (total score of 4 tests) ([5]; 0.1 mM, 18 hr after removal): 0; Vasoconstriction activity (total score of 4 tests) ([5]; 0.1 mM, 24 hr after removal): 0; Vasoconstriction activity (total score of 4 tests) ([5]; 1 mM, 2 hr after removal, 4 h application): 0; Vasoconstriction activity (total score of 4 tests) ([5]; 1 mM, 4 hr after removal): 0; Vasoconstriction activity (total score of 4 tests) ([5]; 1 mM, 6 hr after removal): 0; Vasoconstriction activity (total score of 4 tests) ([5]; 1 mM, 8 hr after removal): 0; Vasoconstriction activity (total score of 4 tests) ([5]; 1 mM, 10 hr after removal): 0; Vasoconstriction activity (total score of 4 tests) ([5]; 1 mM, 16 hr after removal): 0; Vasoconstriction activity (total score of 4 tests) ([5]; 1 mM, 18 hr after removal): 0; Vasoconstriction activity (total score of 4 tests) ([5]; 1 mM, 24 hr after removal): 0; Vasoconstriction activity alone (in words) ([5]; by itself, concentration range 0.1 to 1 mM, human skin, listed as HC): do not yield any detectable activity; also recorded: no activity; Class [3]: 1
